Assays:
Experiment in all cases: relative viability (nuclei count vs DMSO), 5 days (fraction); higher = more cells survive
Axitinib + Tozasertib = compound: CNC(=O)c1ccccc1Sc1ccc2c(/C=C/c3ccccn3)n[nH]c2c1 [Axitinib] + Cc1cc(Nc2cc(N3CCN(C)CC3)nc(Sc3ccc(NC(=O)C4CC4)cc3)n2)n[nH]1 [Tozasertib] (partner 0.1 µM)
Method in brief: (§1)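 For relative viability, nuclei counts in treated wells were divided by those in vehicle wells. Lung cancer cell lines had been pin-tool dosed in 1536-well plates the day after seeding and cultured for 5 days, then fixed and stained in one step (final 0.05% Triton X-100, 1% formaldehyde, 1 ug/ml Hoechst) and imaged at 4×. Doses were one drug alone or a fixed anchor-drug dose plus five library-drug doses (not always all listed) in √10 steps, and values are duplicate-plate medians.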

Bemcentinib + Decitabine = compound: Nc1nc(Nc2ccc3c(c2)CC[C@@H](N2CCCC2)CC3)nn1-c1cc2c(nn1)-c1ccccc1CCC2 [Bemcentinib] + Nc1ncn([C@H]2C[C@H](O)[C@@H](CO)O2)c(=O)n1 [Decitabine] (partner 2 µM)
Method in brief: as §1

Bemcentinib + Alpelisib = compound: Nc1nc(Nc2ccc3c(c2)CC[C@@H](N2CCCC2)CC3)nn1-c1cc2c(nn1)-c1ccccc1CCC2 [Bemcentinib] + Cc1nc(NC(=O)N2CCC[C@H]2C(N)=O)sc1-c1ccnc(C(C)(C)C(F)(F)F)c1 [Alpelisib] (partner 2 µM)
Method in brief: as §1

[1] = compound: Nc1nc(Nc2ccc3c(c2)CC[C@@H](N2CCCC2)CC3)nn1-c1cc2c(nn1)-c1ccccc1CCC2 [Bemcentinib] + CC(=O)c1c(C)c2cnc(Nc3ccc(N4CCNCC4)cn3)nc2n(C2CCCC2)c1=O [Palbociclib] (partner 0.5 µM)
Method in brief: as §1

Cell Line | relative viability (Axitinib + Tozasertib; first compound 0.005 µM) | relative viability (Axitinib + Tozasertib; first compound 0.01581 µM) | relative viability (Axitinib + Tozasertib; first compound 0.05 µM) | relative viability (Axitinib + Tozasertib; first compound 0.1581 µM) | relative viability (Axitinib + Tozasertib; first compound 0.5 µM) | relative viability (Bemcentinib + Decitabine; first compound 0.04 µM) | relative viability (Bemcentinib + Decitabine; first compound 0.1265 µM) | relative viability (Bemcentinib + Decitabine; first compound 0.4 µM) | relative viability (Bemcentinib + Decitabine; first compound 1.265 µM) | relative viability (Bemcentinib + Decitabine; first compound 4 µM) | relative viability (Bemcentinib + Alpelisib; first compound 0.1265 µM) | relative viability (Bemcentinib + Alpelisib; first compound 0.4 µM) | relative viability (Bemcentinib + Alpelisib; first compound 1.265 µM) | relative viability (Bemcentinib + Alpelisib; first compound 4 µM) | relative viability ([1]; first compound 0.04 µM) | relative viability ([1]; first compound 0.1265 µM) | relative viability ([1]; first compound 0.4 µM) | relative viability ([1]; first compound 1.265 µM) | relative viability ([1]; first compound 4 µM) | relative viability (Bemcentinib + Alpelisib; first compound 0.04 µM)
A-427 | 0.206 | 0.193 | 0.228 | 0.266 | 0.22 | 0.569 | 0.525 | 0.502 | 0.57 | 0.559 | 1.05 | 1.18 | 1.04 | 1.15 | 0.55 | 0.515 | 0.534 | 0.532 | 0.532 | –
LXF-289 | 0.253 | 0.175 | 0.219 | 0.253 | 0.317 | 0.431 | 0.323 | 0.417 | 0.398 | 0.364 | 1.05 | 1.02 | 1.06 | 1.05 | 0.633 | 0.629 | 0.581 | 0.558 | 0.622 | 1.09
NCI-H1355 | 0.679 | 0.587 | 0.544 | 0.54 | 0.617 | 0.341 | 0.35 | 0.376 | 0.347 | 0.431 | 0.915 | 0.778 | 0.902 | 0.965 | 0.396 | 0.403 | 0.419 | 0.415 | 0.437 | 0.905
NCI-H1437 | 0.403 | 0.465 | 0.406 | 0.459 | 0.511 | 0.58 | 0.602 | 0.558 | 0.584 | 0.571 | 1.03 | 1.16 | 1.01 | 1.01 | 0.322 | 0.373 | 0.298 | 0.226 | 0.324 | 0.961
HCC-366 | 0.135 | 0.116 | 0.133 | 0.136 | 0.142 | 0.335 | 0.362 | 0.395 | 0.369 | 0.341 | 0.408 | 0.572 | 0.378 | 0.417 | 0.398 | 0.508 | 0.528 | 0.443 | 0.519 | 0.474
NCI-H1299 | – | – | – | – | – | – | – | – | – | – | 1.07 | 1.09 | 1.1 | 1.08 | – | – | – | – | – | 1.1
201T | 1 | 0.896 | 0.907 | 0.929 | 1.19 | 0.827 | 0.903 | 0.893 | 0.979 | 0.868 | 0.987 | 1.03 | 1.08 | 1.04 | 0.333 | 0.314 | 0.392 | 0.363 | 0.389 | 1.01
IA-LM | – | – | – | – | – | – | – | – | – | – | 0.807 | 0.748 | 0.652 | 0.78 | – | – | – | – | – | 0.749
NCI-H1734 | 0.278 | 0.268 | 0.274 | 0.241 | 0.25 | 0.401 | 0.533 | 0.595 | 0.472 | 0.447 | 0.74 | 0.718 | 0.372 | 0.514 | 0.345 | 0.32 | 0.349 | 0.345 | 0.345 | 1.04
NCI-H1993 | 0.617 | 0.59 | 0.592 | 0.607 | 0.641 | 0.541 | 0.49 | 0.627 | 0.577 | 0.68 | 0.74 | 0.694 | 0.712 | 0.687 | 0.62 | 0.723 | 0.718 | 0.651 | 0.708 | 0.74
NCI-H2085 | 0.652 | 0.771 | 0.807 | 0.827 | 0.913 | 0.539 | 0.583 | 0.498 | 0.551 | 0.554 | 1.08 | 1.02 | 0.983 | 0.967 | 0.456 | 0.449 | 0.44 | 0.46 | 0.47 | 0.905
EBC-1 | – | – | – | – | – | – | – | – | – | – | 0.863 | 0.825 | 0.849 | 0.76 | – | – | – | – | – | 0.843
COR-L23 | 0.212 | 0.205 | 0.24 | 0.244 | 0.278 | 0.465 | 0.467 | 0.481 | 0.472 | 0.456 | 0.778 | 0.965 | 0.9 | 0.904 | 0.304 | 0.316 | 0.275 | 0.382 | 0.31 | 0.874
NCI-H1793 | 0.311 | 0.311 | 0.46 | 0.346 | 0.351 | 0.475 | 0.495 | 0.5 | 0.549 | 0.586 | 0.927 | 0.691 | 0.742 | 0.66 | 0.331 | 0.369 | 0.306 | 0.26 | 0.322 | 0.684
A549 | – | – | – | – | – | 0.248 | 0.247 | 0.319 | 0.296 | 0.26 | 0.892 | 0.754 | 0.988 | 0.875 | – | – | – | – | – | 0.834
EPLC-272H | 0.247 | 0.223 | 0.204 | 0.23 | 0.242 | 0.373 | 0.361 | 0.387 | 0.397 | 0.399 | 0.991 | 0.951 | 0.977 | 1.07 | 0.287 | 0.309 | 0.361 | 0.302 | 0.34 | –

From the supplement of paper PMC10307832
